# Source: BindingDB's records for PubMed 35973549 (Pharmaxis, 2022)
# Test: Inhibition of recombinant human SSAO
row,IC50 [µM],SMILES
1,0.006,NCC(=CF)COc1ccccc1
2,0.019,NC/C(=C\F)COc1ccccc1
3,0.288,Cc1ccccc1OC/C(=C/F)CN
